From PubChem BioAssay (NCI)
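Assay format: 96-well plates, 48-hour exposure. At the GI50, growth is halved. TGI: concentration producing complete growth inhibition.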

Experiments:
Assay in all cases: NCI-60 cell line screen, 48 h
SK-MEL-5 melanoma = test system: SK-MEL-5 melanoma
NCI-H226 lung = test system: NCI-H226 lung
786-0 renal = test system: 786-0 renal
MDA-MB-231 breast = test system: MDA-MB-231 breast
UACC-62 melanoma = test system: UACC-62 melanoma
MOLT-4 leukemia = test system: MOLT-4 leukemia
RPMI-8226 leukemia = test system: RPMI-8226 leukemia
T-47D breast = test system: T-47D breast
SW-620 colon = test system: SW-620 colon
NCI-H522 lung = test system: NCI-H522 lung
OVCAR-8 ovarian = test system: OVCAR-8 ovarian
U251 CNS = test system: U251 CNS
SNB-75 CNS = test system: SNB-75 CNS
OVCAR-5 ovarian = test system: OVCAR-5 ovarian
UACC-257 melanoma = test system: UACC-257 melanoma
SN12C renal = test system: SN12C renal
SK-MEL-2 melanoma = test system: SK-MEL-2 melanoma
HOP-62 NSCLC = test system: HOP-62 NSCLC
SK-MEL-28 melanoma = test system: SK-MEL-28 melanoma
PC-3 prostate = test system: PC-3 prostate
A549 NSCLC = test system: A549 NSCLC
CAKI-1 renal = test system: CAKI-1 renal
HCT-116 colon = test system: HCT-116 colon
EKVX NSCLC = test system: EKVX NSCLC
DU-145 prostate = test system: DU-145 prostate
OVCAR-3 ovarian = test system: OVCAR-3 ovarian
HCT-15 colon = test system: HCT-15 colon
MCF7 breast = test system: MCF7 breast
ACHN renal = test system: ACHN renal
NCI-H23 lung = test system: NCI-H23 lung
SNB-19 CNS = test system: SNB-19 CNS
SK-OV-3 ovarian = test system: SK-OV-3 ovarian
BT-549 breast = test system: BT-549 breast
HT29 colon = test system: HT29 colon
SF-539 CNS = test system: SF-539 CNS
HCC-2998 colon = test system: HCC-2998 colon
UO-31 renal = test system: UO-31 renal
RXF 393 renal = test system: RXF 393 renal
COLO 205 colon = test system: COLO 205 colon
HL-60(TB) leukemia = test system: HL-60(TB) leukemia
SF-295 CNS = test system: SF-295 CNS
HS 578T breast = test system: HS 578T breast
HOP-92 NSCLC = test system: HOP-92 NSCLC
NCI-H460 lung = test system: NCI-H460 lung
LOX IMVI melanoma = test system: LOX IMVI melanoma
IGROV1 ovarian = test system: IGROV1 ovarian
M14 melanoma = test system: M14 melanoma
OVCAR-4 ovarian = test system: OVCAR-4 ovarian
SF-268 CNS = test system: SF-268 CNS
MDA-MB-435 = test system: MDA-MB-435
KM12 colon = test system: KM12 colon
A498 renal = test system: A498 renal
TK-10 renal = test system: TK-10 renal
SR leukemia = test system: SR leukemia
NCI/ADR-RES ovarian = test system: NCI/ADR-RES ovarian
K-562 leukemia = test system: K-562 leukemia

## CN(C)CN1C(=O)S/C(=C2\C(=O)N(CN(C)C)c3ccccc32)C1=O
SK-MEL-5 melanoma
  TGI: > 100 µM
NCI-H226 lung
  TGI: > 100 µM
786-0 renal
  TGI: > 100 µM
MDA-MB-231 breast
  TGI: > 100 µM
UACC-62 melanoma
  TGI: > 100 µM
MOLT-4 leukemia
  TGI: 1.93 µM
RPMI-8226 leukemia
  TGI: 54.8 µM
T-47D breast
  TGI: > 100 µM
SW-620 colon
  TGI: 93.1 µM
NCI-H522 lung
  TGI: > 100 µM
OVCAR-8 ovarian
  TGI: > 100 µM
U251 CNS
  TGI: > 100 µM
SNB-75 CNS
  TGI: 74.5 µM
OVCAR-5 ovarian
  TGI: > 100 µM
UACC-257 melanoma
  TGI: > 100 µM
SN12C renal
  TGI: 69.4 µM
SK-MEL-2 melanoma
  TGI: > 100 µM
HOP-62 NSCLC
  TGI: > 100 µM
SK-MEL-28 melanoma
  TGI: > 100 µM
PC-3 prostate
  TGI: > 100 µM
A549 NSCLC
  TGI: > 100 µM
CAKI-1 renal
  TGI: 97.9 µM
HCT-116 colon
  TGI: > 100 µM
EKVX NSCLC
  TGI: > 100 µM
DU-145 prostate
  TGI: > 100 µM
OVCAR-3 ovarian
  TGI: > 100 µM
HCT-15 colon
  TGI: > 100 µM
MCF7 breast
  TGI: > 100 µM
ACHN renal
  TGI: > 100 µM
NCI-H23 lung
  TGI: 49.2 µM
SNB-19 CNS
  TGI: > 100 µM
SK-OV-3 ovarian
  TGI: > 100 µM
BT-549 breast
  TGI: > 100 µM
HT29 colon
  TGI: > 100 µM
SF-539 CNS
  TGI: > 100 µM
HCC-2998 colon
  TGI: > 100 µM
UO-31 renal
  TGI: 91.8 µM
RXF 393 renal
  TGI: 75 µM
COLO 205 colon
  TGI: > 100 µM
HL-60(TB) leukemia
  TGI: 37.2 µM
SF-295 CNS
  TGI: > 100 µM
HS 578T breast
  TGI: > 100 µM
HOP-92 NSCLC
  TGI: > 100 µM
NCI-H460 lung
  TGI: > 100 µM
LOX IMVI melanoma
  TGI: 73.2 µM
IGROV1 ovarian
  TGI: > 100 µM
M14 melanoma
  TGI: 68.3 µM
OVCAR-4 ovarian
  TGI: > 100 µM
SF-268 CNS
  TGI: > 100 µM
MDA-MB-435
  TGI: > 100 µM
KM12 colon
  TGI: > 100 µM
A498 renal
  TGI: > 100 µM
TK-10 renal
  TGI: > 100 µM
SR leukemia
  TGI: 45.3 µM
NCI/ADR-RES ovarian
  TGI: > 100 µM

## N#CC1C(N)=NNC1c1ccc(-c2ccc(-c3nc4ccccc4o3)cc2)o1 (stereo not drawn)
SK-MEL-5 melanoma
  GI50: 21.4 µM
  TGI: 60.5 µM
NCI-H226 lung
  GI50: 15.1 µM
  TGI: 74.5 µM
786-0 renal
  GI50: > 100 µM
  TGI: > 100 µM
MDA-MB-231 breast
  GI50: 15.3 µM
  TGI: 65.8 µM
UACC-62 melanoma
  GI50: 23.9 µM
  TGI: 91.1 µM
MOLT-4 leukemia
  GI50: > 100 µM
  TGI: > 100 µM
RPMI-8226 leukemia
  GI50: 28.6 µM
  TGI: > 100 µM
T-47D breast
  GI50: 68.5 µM
  TGI: > 100 µM
SW-620 colon
  GI50: 74.9 µM
  TGI: > 100 µM
NCI-H522 lung
  GI50: 53.4 µM
  TGI: > 100 µM
OVCAR-8 ovarian
  GI50: 15.3 µM
  TGI: 88 µM
U251 CNS
  GI50: 28.4 µM
  TGI: > 100 µM
SNB-75 CNS
  GI50: > 100 µM
  TGI: > 100 µM
OVCAR-5 ovarian
  GI50: 38.1 µM
  TGI: > 100 µM
UACC-257 melanoma
  GI50: 23.1 µM
  TGI: > 100 µM
SN12C renal
  GI50: 45 µM
  TGI: > 100 µM
SK-MEL-2 melanoma
  GI50: 37.5 µM
  TGI: > 100 µM
HOP-62 NSCLC
  GI50: > 100 µM
  TGI: > 100 µM
K-562 leukemia
  GI50: 64.6 µM
  TGI: > 100 µM
SK-MEL-28 melanoma
  GI50: 26 µM
  TGI: > 100 µM
PC-3 prostate
  GI50: 40.3 µM
  TGI: > 100 µM
A549 NSCLC
  GI50: 32.3 µM
  TGI: > 100 µM
CAKI-1 renal
  GI50: 14.8 µM
  TGI: 44.2 µM
HCT-116 colon
  GI50: 5.91 µM
  TGI: > 100 µM
EKVX NSCLC
  GI50: 14.6 µM
  TGI: 81.2 µM
DU-145 prostate
  GI50: 15.3 µM
  TGI: 41.1 µM
OVCAR-3 ovarian
  GI50: 2.12 µM
  TGI: 13.2 µM
HCT-15 colon
  GI50: 32.3 µM
  TGI: > 100 µM
ACHN renal
  GI50: 14.6 µM
  TGI: 51.7 µM
SNB-19 CNS
  GI50: > 100 µM
  TGI: > 100 µM
SK-OV-3 ovarian
  GI50: 37.4 µM
  TGI: > 100 µM
BT-549 breast
  GI50: 24 µM
  TGI: 75.7 µM
UO-31 renal
  GI50: 30.1 µM
  TGI: > 100 µM
COLO 205 colon
  GI50: 30.9 µM
  TGI: > 100 µM
HL-60(TB) leukemia
  GI50: 57.7 µM
  TGI: > 100 µM
SF-295 CNS
  GI50: 66.4 µM
  TGI: > 100 µM
HS 578T breast
  GI50: 29.6 µM
  TGI: > 100 µM
HOP-92 NSCLC
  GI50: 18.2 µM
  TGI: > 100 µM
NCI-H460 lung
  GI50: 23.8 µM
  TGI: > 100 µM
LOX IMVI melanoma
  GI50: 23.3 µM
  TGI: 64.7 µM
IGROV1 ovarian
  GI50: 69.4 µM
  TGI: > 100 µM
M14 melanoma
  GI50: 63.7 µM
  TGI: > 100 µM
OVCAR-4 ovarian
  GI50: 90.8 µM
  TGI: > 100 µM
SF-268 CNS
  GI50: 20 µM
  TGI: 51.7 µM
MDA-MB-435
  GI50: 36.4 µM
  TGI: > 100 µM
KM12 colon
  GI50: 24 µM
  TGI: 93.8 µM
TK-10 renal
  GI50: 25.5 µM
  TGI: 74.7 µM
SR leukemia
  GI50: > 100 µM
  TGI: > 100 µM
NCI/ADR-RES ovarian
  GI50: 36 µM
  TGI: 75.6 µM
